biological target: T1, TACE (ADAM17) (Homo sapiens, UniProt P78536); experiment: TACE (ADAM17) inhibition test; assay type: biochemical; conditions: fluorescent synthetic substrate, 37° C. for 1.5 hours; read-out: TACE IC50
T1 construct: made in house; host or cells: mammalian cells or insect cells
How it was run: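 Recombinant human TACE (mammalian or insect cell expressed) cleaves Nma-LAQAVRSSK(Dnp)-D-Arg-NH2 quenched substrate, 1.5 h at 37 °C. Fluorescence read at Ex 355/Em 460 nm; IC50 from inhibition vs no-compound control, binned A (<100 nM) or B (≥100 nM).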

T1 sequence (P78536 215-824): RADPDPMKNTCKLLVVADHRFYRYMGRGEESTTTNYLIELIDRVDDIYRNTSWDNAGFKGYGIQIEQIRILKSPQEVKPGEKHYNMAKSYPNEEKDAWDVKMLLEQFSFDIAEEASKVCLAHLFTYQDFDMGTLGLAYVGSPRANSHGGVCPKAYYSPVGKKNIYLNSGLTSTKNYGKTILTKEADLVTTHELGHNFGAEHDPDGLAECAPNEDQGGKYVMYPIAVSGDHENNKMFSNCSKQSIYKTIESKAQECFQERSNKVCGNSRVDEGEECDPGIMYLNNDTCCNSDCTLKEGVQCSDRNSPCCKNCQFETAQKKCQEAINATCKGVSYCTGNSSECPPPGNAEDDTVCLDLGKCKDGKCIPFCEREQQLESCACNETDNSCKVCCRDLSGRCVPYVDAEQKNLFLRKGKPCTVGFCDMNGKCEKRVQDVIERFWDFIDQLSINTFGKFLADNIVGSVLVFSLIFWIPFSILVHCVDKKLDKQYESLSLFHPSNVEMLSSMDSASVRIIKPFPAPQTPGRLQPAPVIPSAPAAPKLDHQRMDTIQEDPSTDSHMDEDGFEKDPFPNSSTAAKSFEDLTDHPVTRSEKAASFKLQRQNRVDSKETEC

Row | IC50 [nM] | Structure (SMILES)
1 | < 100 | N#Cc1ccc(C2(Cn3cccc(Cl)c3=O)NC(=O)NC2=O)cc1 (racemic) [Compound I-138]
2 | < 100 | O=C1NC(=O)C(Cn2cccc(F)c2=O)(c2ccc3ccccc3c2)N1 (racemic) [Compound I-135]
3 | < 100 | CCc1ccc(C2(Cn3cccc(C)c3=O)NC(=O)NC2=O)cc1 (racemic) [Compound I-116]
4 | ≥ 100 | O=C1NC(=O)C(Cn2cccc(CO)c2=O)(c2ccc(F)c(F)c2)N1 (racemic) [Compound I-148]
5 | < 100 | O=C1NC(=O)C(Cn2cccc(Cl)c2=O)(c2ccc(F)c(F)c2)N1 (racemic) [Compound I-146]
6 | < 100 | O=C1NC(=O)C(Cn2ccccc2=O)(c2ccc(F)c(F)c2)N1 (racemic) [Compound I-155]
7 | < 100 | Cc1cccn(CC2(c3ccc(Cl)c(Cl)c3)NC(=O)NC2=O)c1=O (racemic) [Compound I-125]
8 | < 100 | Cc1cccn(CC2(c3ccc(Oc4ccccc4)c(Cl)c3)NC(=O)NC2=O)c1=O (racemic) [Compound I-123]
9 | < 100 | COc1cc(C2(Cn3cccc(C)c3=O)NC(=O)NC2=O)cc(F)c1F (racemic) [Compound I-127]
10 | < 100 | COc1ccc(C2(Cn3cccc(F)c3=O)NC(=O)NC2=O)cc1 (racemic) [Compound I-133]
11 | ≥ 100 | Cc1cccn(CC2(c3ccc(CCC4CCCCC4)cc3)NC(=O)NC2=O)c1=O (racemic) [Compound I-118]
12 | < 100 | O=C1NC(=O)C(Cn2cccc(Cl)c2=O)(c2ccc(F)cc2)N1 (racemic) [Compound I-136]
13 | < 100 | Cc1cccn(CC2(c3ccc(C(C)C)cc3)NC(=O)NC2=O)c1=O (racemic) [Compound I-117]
14 | < 100 | Cc1cccn(CC2(c3ccc(F)c(Cl)c3)NC(=O)NC2=O)c1=O (racemic) [Compound I-126]
15 | < 100 | O=C1NC(=O)C(Cn2cccc(F)c2=O)(c2ccc(F)c(F)c2)N1 (racemic) [Compound I-145]
16 | ≥ 100 | O=C1NC(=O)C(Cn2cccc(F)c2=O)(c2ccc(Cc3ccccc3)cc2)N1 (racemic) [Compound I-152]
17 | < 100 | Cc1cccn(CC2(c3ccc(OC(C)C)cc3)NC(=O)NC2=O)c1=O (racemic) [Compound I-120]
18 | < 100 | O=C1NC(=O)C(Cn2cccc(C(F)(F)F)c2=O)(c2ccccc2)N1 (racemic) [Compound I-140]
19 | ≥ 100 | C=C(C)c1cccn(CC2(c3ccc(OC)cc3)NC(=O)NC2=O)c1=O (racemic) [Compound I-144]

Continued, compound first:

Row | Structure (SMILES) | IC50 [nM]
20 | Cc1cccn(CC2(c3cc(F)c(F)c(F)c3)NC(=O)NC2=O)c1=O (racemic) [Compound I-44, 5-[(3-methyl-2-oxopyridin-1(2H)-yl)methyl]-5-(3,4,5-trifluorophenyl)imidazolidine-2,4-dione] | < 100
21 | COc1cc(C)c(Cl)cc1C1(Cn2cccc(C)c2=O)NC(=O)NC1=O (racemic) [Compound I-70] | ≥ 100
22 | Cc1cccn(CC2(c3cccc(-c4ccccc4)c3)NC(=O)NC2=O)c1=O (racemic) [Compound I-96] | < 100
23 | Cc1cccn(CC2(c3ccccc3)NC(=O)NC2=O)c1=O (racemic) [Compound I-1, 5-[(3-methyl-2-oxopyridin-1(2H)-yl)methyl]-5-phenyl-imidazolidine-2,4-dione] | < 100
24 | Cc1cccn(CC2(c3ccc(C#Cc4ccccn4)cc3)NC(=O)NC2=O)c1=O (racemic) [Compound I-110] | < 100
25 | COc1ccc(Cl)cc1C1(Cn2cccc(C)c2=O)NC(=O)NC1=O (racemic) [Compound I-27, 5-(5-chloro-2-methoxyphenyl)-5-[(3-methyl-2-oxopyridin-1(2H)-yl)methyl]imidazolidine-2,4-dione] | < 100
26 | Cc1cccn(CC2(c3cccc(O)c3)NC(=O)NC2=O)c1=O (racemic) [Compound I-54, 5-(3-hydroxyphenyl)-5-[(3-methyl-2-oxopyridin-1(2H)-yl)methyl]imidazolidine-2,4-dione] | ≥ 100
27 | Cc1cccn(CC2(c3ccsc3)NC(=O)NC2=O)c1=O (racemic) [Compound I-5, 5-[(3-methyl-2-oxopyridin-1(2H)-yl)methyl]-5-(thiophen-3-yl)imidazolidine-2,4-dione] | < 100
28 | Cc1cccn(CC2(c3ccc(CCc4ccccn4)cc3)NC(=O)NC2=O)c1=O (racemic) [Compound I-115] | < 100
29 | Cc1cccn(CC2(c3cccnc3)NC(=O)NC2=O)c1=O (racemic) [Compound I-8, 5-[(3-methyl-2-oxopyridin-1(2H)-yl)methyl]-5-(pyridin-3-yl)imidazolidine-2,4-dione] | < 100
30 | Cc1cccn(CC2(c3ccc(Oc4cccnc4)cc3)NC(=O)NC2=O)c1=O (racemic) [Compound I-101] | < 100
31 | O=C1NC(=O)C(Cn2cccc(F)c2=O)(c2ccc(-c3ccccc3)cc2)N1 (racemic) [Compound I-49, 5-([1,1′-biphenyl]-4-yl)-5-[(3-fluoro-2-oxopyridin-1(2H)-yl)methyl]imidazolidine-2,4-dione] | < 100
32 | Cc1cccn(CC2(c3ccc(Oc4cccc(C(F)(F)F)c4)cc3)NC(=O)NC2=O)c1=O (racemic) [Compound I-100] | < 100
33 | Cc1cccn(CC2(c3cccc(C(F)(F)F)c3)NC(=O)NC2=O)c1=O (racemic) [Compound I-19] | < 100
34 | COc1ccc(OC(F)(F)F)cc1C1(Cn2cccc(C)c2=O)NC(=O)NC1=O (racemic) [Compound I-24, 5-[2-methoxy-5-(trifluoromethoxy)phenyl]-5-[(3-methyl-2-oxopyridin-1(2H)-yl)methyl]imidazolidine-2,4-dione] | ≥ 100
35 | Cc1cccn(CC2(c3ccc(-c4ccccn4)cc3)NC(=O)NC2=O)c1=O (racemic) [Compound I-92] | < 100
36 | Cc1ccc(Oc2ccc(C3(Cn4cccc(C)c4=O)NC(=O)NC3=O)cc2)cc1 (racemic) [Compound I-34, 5-[(3-methyl-2-oxopyridin-1(2H)-yl)methyl]-5-[4-(p-tolyloxy)phenyl]imidazolidine-2,4-dione] | < 100
37 | COCOc1ccc(C2(Cn3cccc(C)c3=O)NC(=O)NC2=O)cc1 (racemic) [Compound I-13, 5-[4-(methoxymethoxy)phenyl]-5-[(3-methyl-2-oxopyridin-1(2H)-yl)methyl]imidazolidine-2,4-dione] | < 100
38 | Cc1cccn(CC2(c3ccc(Oc4ccc(Cl)cc4)cc3)NC(=O)NC2=O)c1=O (racemic) [Compound I-82] | < 100
39 | Cc1cccn(CC2(c3ccc(Br)cc3)NC(=O)NC2=O)c1=O (racemic) [Compound I-11, 5-(4-bromophenyl)-5-[(3-methyl-2-oxopyridin-1(2H)-yl)methyl]imidazolidine-2,4-dione] | < 100

Row | Structure (SMILES) | IC50 [nM]
40 | Cc1cccn(CC2(c3ccc(CCc4ccccc4)cc3)NC(=O)NC2=O)c1=O (racemic) [Compound I-107] | < 100
41 | COc1ccc(-c2ccc(C3(Cn4cccc(C)c4=O)NC(=O)NC3=O)cc2)cc1 (racemic) [Compound I-72] | < 100
42 | Cc1cccn(CC2(c3ccc(S(C)(=O)=O)cc3)NC(=O)NC2=O)c1=O (racemic) [Compound I-25, 5-[(3-methyl-2-oxopyridin-1(2H)-yl)methyl]-5-[4-(methylsulfonyl)phenyl]imidazolidine-2,4-dione] | < 100
43 | COc1ccncc1-c1ccc(C2(Cn3cccc(C)c3=O)NC(=O)NC2=O)cc1 (racemic) [Compound I-91] | < 100
44 | Cc1cccn(CC2(c3cccc(-c4ccc(F)cn4)c3)NC(=O)NC2=O)c1=O (racemic) [Compound I-93] | < 100
45 | Cc1cccn(CC2(c3ccccn3)NC(=O)NC2=O)c1=O (racemic) [Compound I-7, 5-[(3-methyl-2-oxopyridin-1(2H)-yl)methyl]-5-(pyridin-2-yl)imidazolidine-2,4-dione] | < 100
46 | COc1ccc(C2(Cn3cccc(C)c3=O)NC(=O)NC2=O)c(OC)c1 (racemic) [Compound I-18, 5-(2,4-dimethoxyphenyl)-5-[(3-methyl-2-oxopyridin-1(2H)-yl)methyl]imidazolidine-2,4-dione] | < 100
47 | Cc1cccn(CC2(c3ccc(Oc4ccc(F)c(F)c4)cc3)NC(=O)NC2=O)c1=O (racemic) [Compound I-98] | < 100
48 | Cc1cc(C2(Cn3cccc(C)c3=O)NC(=O)NC2=O)ccc1OC1CCCC1 (racemic) [Compound I-39, 5-[4-(cyclopentyloxy)-3-methylphenyl]-5-[(3-methyl-2-oxopyridin-1(2H)-yl)methyl]imidazolidine-2,4-dione] | < 100
49 | Cc1cccn(CC2(c3cccc(-c4ccccn4)c3)NC(=O)NC2=O)c1=O (racemic) [Compound I-94] | < 100
50 | Cc1cccn(CC2(c3ccc(Oc4cc(F)cc(F)c4)cc3)NC(=O)NC2=O)c1=O (racemic) [Compound I-99] | < 100
51 | Cc1cccn(CC2(c3ccc4c(c3)OCCCO4)NC(=O)NC2=O)c1=O (racemic) [Compound I-105] | < 100
52 | Cc1cccn(CC2(c3ccc(F)c(F)c3)NC(=O)NC2=O)c1=O (racemic) [Compound I-10, 5-(3,4-difluorophenyl)-5-[(3-methyl-2-oxopyridin-1(2H)-yl)methyl]imidazolidine-2,4-dione] | < 100
53 | Cc1cccn(CC2(c3ccc(Oc4ccc(F)cc4)cc3)NC(=O)NC2=O)c1=O (racemic) [Compound I-85] | < 100
54 | Cc1cccn(CC2(c3ccc(C(F)(F)F)cc3)NC(=O)NC2=O)c1=O (racemic) [Compound I-89] | < 100
55 | Cc1cccn(CC2(c3ccc4c(c3)OCO4)NC(=O)NC2=O)c1=O (racemic) [Compound I-65] | < 100
56 | Cc1cccn(CC2(c3ccc(Oc4ccc(F)cc4)c(F)c3)NC(=O)NC2=O)c1=O (racemic) [Compound I-111] | < 100
57 | Cc1cccn(CC2(c3cccc(OCc4ccccc4)c3)NC(=O)NC2=O)c1=O (racemic) [Compound I-58] | < 100
58 | Cc1cccn(CC2(c3ccccc3OCc3ccccc3)NC(=O)NC2=O)c1=O (racemic) [Compound I-68] | ≥ 100
